{
  "source": "paper PMC4405790",
  "about": "(Pharmaceutical research, 2012)",
  "origin": "cited, not measured here",
  "key": {"[1]": {"settings": "aqueous"}},
  "note": "Entries after “also recorded” stand apart in the source; their conditions may differ.",
  "data": [
    {"smiles": "Cc1cc(C)cc(C(=O)c2c(C(C)C)c(=O)[nH]c(=O)n2CC2CC2)c1", "note": "[IQP-0528, 1-(3-Cyclopropyl)methyl-6-(3,5-dimethylbenzoyl)-5-isopropyl-2,4(1H,3H)-pyrimidinedione]", "values": [
      {"measurement": "activity against laboratory strains of virus", "setting": "HIV", "value": "nanomolar"},
      {"measurement": "activity against representative clinical strains of HIV", "setting": "HIV", "value": "nanomolar to subnanomolar"},
      {"measurement": "level of activity as a NNRTI", "setting": "HIV; cell-based in vitro assays", "value": "subnanomolar"},
      {"measurement": "level of activity as inhibitor of a step in virus entry", "setting": "HIV; cell-based in vitro assays", "value": "nanomolar"},
      {"measurement": "solubility", "setting": "[1]", "value": "low solubility; also recorded: very low solubility"}
    ]}
  ]
}
